The target in series [1] is hFKBP12 (Homo sapiens, UniProt P62942). The series is described as follows: protease-coupled PPIase assay, hFKBP12. The settings on record: 20 nM hFKBP12, substrate Suc-Ala-Phe-Pro-Phe-pNA, chymotrypsin, pH 7.8, 6° C.; read-out: IC50 class, Target T-2 (hFKBP12). The format is biochemical.
The target of series [2] is hCyp18 (Homo sapiens, UniProt P62937). The series is described as follows: protease-coupled PPIase assay, hCyp18. It counts as biochemical. The settings on record: 10 nM hCyp18, substrate Suc-Ala-Phe-Pro-Phe-pNA, chymotrypsin, pH 7.8, 6° C.; read-out: IC50 class, Target T-3 (hCyp18).
Series [3] has as its target EcParvulin (Escherichia coli, UniProt P0A9L5). The series is described as follows: protease-coupled PPIase assay, EcParvulin. The format is biochemical.
The target of series [4] is T1, Papain (Carica papaya, UniProt P00784).
T1 sequence (P00784 134-345): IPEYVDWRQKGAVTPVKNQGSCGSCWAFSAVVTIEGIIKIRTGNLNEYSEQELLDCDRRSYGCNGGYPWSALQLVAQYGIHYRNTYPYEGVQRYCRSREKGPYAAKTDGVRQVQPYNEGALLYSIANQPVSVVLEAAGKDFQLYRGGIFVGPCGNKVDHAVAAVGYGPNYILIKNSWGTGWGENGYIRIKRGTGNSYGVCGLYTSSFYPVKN
The experiment in a line: papain assay. The format is biochemical. The conditions noted are these: 16 μg/ml papain, 2 mM Bz-DL-Arg-pNA, pH 6.5, 30° C., 30 min incubation; read-out: IC50 class, Target T-6 (Papain). The procedure, abridged:
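Enzyme pre-incubated 30 min with 1-100 μM compound at 30° C, then pNA substrate added; 4-nitroaniline release read at 390 nm. Trypsin: 0.1 μg/ml, 120 μM Ac-Ala-Ala-Ser(PO3H2)-Pro-Arg-pNA, HEPES pH 7.8; cathepsin B: 0.2 μg/ml, 2 mM Z-Arg-Arg-pNA, phosphate/EDTA/Brij 35 pH 5.8; papain: 16 μg/ml, 2 mM Bz-DL-Arg-pNA, phosphate/L-Cys/EDTA pH 6.5.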

The target of series [5] is T2, Trypsin (UniProt P00760).
T2 sequence (P00760 1-246): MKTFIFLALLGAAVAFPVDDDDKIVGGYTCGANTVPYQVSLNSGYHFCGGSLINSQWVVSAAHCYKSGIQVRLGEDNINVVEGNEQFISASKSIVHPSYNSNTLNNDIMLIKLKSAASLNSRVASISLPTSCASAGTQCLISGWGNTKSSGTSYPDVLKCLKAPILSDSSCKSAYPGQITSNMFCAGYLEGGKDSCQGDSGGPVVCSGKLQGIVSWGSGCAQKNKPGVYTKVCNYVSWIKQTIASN
The series is described as follows: trypsin assay. The format is biochemical. The conditions noted are these: 0.1 μg/ml trypsin, 120 μM Ac-Ala-Ala-Ser(PO3H2)-Pro-Arg-pNA, pH 7.8, 30° C., 30 min incubation; read-out: IC50 class, Target T-7 (Trypsin). On the procedure:
(§1) In order to investigate the impact of some of the inventive compounds on the activity of key proteases the following assay was performed: Protease activities were measured spectrophotometrically at 30° C. according to Schomburg and Salzmann (Schomburg, B.; Salzmann M. GBF: Enzyme Handbook. Springer Verlag, Berlin Heidelberg, 1991) and Bergmeyer et al. (Bergmeyer, H. U.; Bergmeyer, J.; Graβl, M. Methods of Enzymatic Analysis, Vol. V Enzymes 3: Peptides, Proteinases and Their Inhibitors. pp 55-371, VCH, Weinheim, 1988). The release of 4-nitroaniline was determined at 390 nm with a Spectramax Plus UV/Vis spectrophotometer (Molecular Devices). The cathepsin B assay was performed in a reaction mixture containing 0.2 μg/ml cathepsin B, 2 mM Z-Arg-Arg-pNA in 88 mM KH2PO4, 12 mM Na2HPO4, 1.33 mM EDTA, 0.03% Brij 35 (pH 5.8). The trypsin assay was carried out in a reaction mixture containing 0.1 μg/ml trypsin and 120 μM Ac-Ala-Ala-Ser(PO3H2)-Pro-Arg-pNA in 35 mM HEPES (pH 7.8) and the papain assay in a mixture consisting of 16 μg/ml papain and 2 mM Bz-DL-Arg-pNA in 10 mM Na2HPO4, 2 mM L-Cys, 5 mM EDTA (pH 6.5). In general, reactions were started by addition of peptide substrate after a 30 min incubation of 1-100 μM effector with given concentrations of enzyme.

In series [6] the target is cathepsin B (Homo sapiens, UniProt P07858). The experiment in a line: cathepsin B assay. The settings on record: 0.2 μg/ml cathepsin B, 2 mM Z-Arg-Arg-pNA, pH 5.8, 30° C., 30 min incubation; read-out: IC50 class, Target T-8 (Cathepsin). It counts as biochemical. As for the experimental part: as §1
Series [7] is described as follows: WST-1 cytotoxicity assay, HeLa. The format is cell-based. The settings on record: human, HeLa cells (cervix carcinoma); WST-1, 48 h incubation; read-out: EC50 class, cytotoxic effect, CL-2 (HeLa). The gist of the method: (§2)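 Human tumour cell lines in culture were exposed to compounds at 37° C for 48 h, then given WST-1. Viability was read as formazan absorbance at (450 vs. 620) nm.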

Series [8] is described as follows: WST-1 cytotoxicity assay, PC-3. It counts as cell-based. The conditions noted are these: human, PC-3 cells (prostate carcinoma); WST-1, 48 h incubation; read-out: EC50 class, cytotoxic effect, CL-3 (PC-3). The procedure, abridged: as §2
(Tetrazolium assays rely on reduction of a dye to a coloured formazan, in cell work by metabolically active cells.)

A short description of series [9]: WST-1 cytotoxicity assay, MCF-7. The conditions noted are these: human, MCF-7 cells (breast adenocarcinoma); WST-1, 48 h incubation; read-out: EC50 class, cytotoxic effect, CL-5 (MCF-7). The format is cell-based. The gist of the method:
as §2

Series [10] concerns Hela cells. The experiment in a line: DAPI staining. The format is cell-based, human. The settings on record: FIG. 3. On the procedure: Hela cells grown on poly-L-Lys-coated coverslips were fixed with 2% paraformaldehyde/MeOH.
Cellular DNA was stained with DAPI staining buffer (100 mM Tris (pH 7.4), 150 mM NaCl, 1 mM CaCl2, 0.5 mM MgCl2, 0.1% nonidet P-40, 1 μg/ml DAPI (Molecular Probes)). All the steps were performed at room temperature, and cells were washed two times with PBS after each step. Finally, cells were mounted in 80% glycerol/PBS.

Series [11] has as its system tumor cell lines (HL-60, HeLa, PC-3, Caco-2, MCF-7). The series is described as follows: WST-1 cytotoxicity assay, tumor cell lines (panel statement). The format is cell-based, human. The settings on record: WST-1, 48 h; table 4. On the procedure:
For this cytotoxic evaluation of the compounds the commercial available WST-1 assay (Roche) was used according to the manufacturer's instructions. The assay is based on the cleavage of the tetrazolium salt WST-1 by mitochondrial dehydrogenases found in viable cells. In general compounds were added to cells cultured in 96-well plates at 37° C. After 48 h of incubation 10 μl of WST-1 solution was added. The formazan dye was analyzed with an ELISA plate reader at (450 vs. 620) nm. CL-1: human acute myeloid leukemia, HL-60 CL-2: human cervix carcinoma, HeLa CL-3: human prostate carcinoma, PC-3 CL-4: human colon adenocarcinoma, Caco-2 CL-5: human breast adenocarcinoma, MCF-7

A value given as a limit tells only on which side of the number the result lay.

EcParvulin, sequence (P0A9L5 whole entry): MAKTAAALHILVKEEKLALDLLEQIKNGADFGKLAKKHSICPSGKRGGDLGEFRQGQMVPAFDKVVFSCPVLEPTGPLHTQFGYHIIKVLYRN
hFKBP12, sequence (P62942 whole entry): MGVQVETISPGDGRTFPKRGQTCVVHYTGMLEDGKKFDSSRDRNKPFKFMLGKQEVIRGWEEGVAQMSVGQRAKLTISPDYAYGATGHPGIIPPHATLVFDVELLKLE
hCyp18, sequence (P62937 whole entry): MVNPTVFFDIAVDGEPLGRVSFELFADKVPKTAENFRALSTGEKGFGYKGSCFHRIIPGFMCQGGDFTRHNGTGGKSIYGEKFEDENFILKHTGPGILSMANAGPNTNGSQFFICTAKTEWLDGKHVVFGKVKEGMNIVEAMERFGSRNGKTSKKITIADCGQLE

For the compound `Cc1c(Cl)cc(NC(=O)NC(C)(C)CC(C)(C)C)c(O)c1Cl` [Compound 102], the IC50 in series [1] was more than 100 µM; in series [2] it was 10 to 50 µM; in series [3], 1 to 10 µM; in [4], 50 to 100 µM; in series [5], 10 to 50 µM; in [6], 50 to 100 µM. Moreover, the EC50 at 48 h in [7], in series [8] and in [9] was less than 10 µM throughout. The “induction of apoptosis (DAPI staining, fluorescence microscopy)” value in series [10] is on record as “induce apoptosis”. The “cytotoxic effect on the tumor cell lines tested” value in [11] is reported as “particular relevance”.

One may read the IC50 as the point on the concentration scale where inhibition reaches its midpoint. The EC50 is the midpoint of the concentration-response curve.

(Values after patent US20110065760A1, “COMPOUNDS FOR THE INHIBITION OF ROTAMASES AND USE THEREOF” (Jerini AG, priority 2002, published 2011).)
